Data published in patent US12077503B2, “Substituted cyclic amides and their use as herbicides” (FMC CORPORATION, priority 2015, dated 2024).
Read-outs that look alike come from different tables or passages of the source.

Key:
Assay type in all cases: in vivo
[1] = test system: wheat (Triticum aestivum); assay: Test A postemergence; details: Triticum aestivum, post-emergence, 240 h, 125 g ai/ha, visual injury after approximately 10 d, read-out: Plant response rating, Wheat
Method in brief: (§1)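 Ratings of 0 (no effect) to 100 (complete control) come from visual comparison with untreated controls roughly 10 d after treatment. Test chemicals, formulated in a non-phytotoxic solvent mixture with surfactant, were applied either as a preemergence directed soil spray on seeded soil or postemergence to one- to two-leaf plants 2 to 10 cm tall.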

[2] = test system: blackgrass (Alopecurus myosuroides); assay: Test A postemergence; details: Alopecurus myosuroides, post-emergence, 240 h, 125 g ai/ha, visual injury after approximately 10 d, read-out: Plant response rating, Blackgrass
Method in brief: as §1

[3] = test system: pigweed (Amaranthus retroflexus); assay: Test A postemergence; details: Amaranthus retroflexus, post-emergence, 240 h, 125 g ai/ha, visual injury after approximately 10 d, read-out: Plant response rating, Pigweed
Method in brief: as §1

[4] = test system: ryegrass, Italian (Italian ryegrass, Lolium multiflorum); assay: Test A postemergence; details: Lolium multiflorum, post-emergence, 240 h, 125 g ai/ha, visual injury after approximately 10 d, read-out: Plant response rating, Ryegrass, Italian
Method in brief: as §1

[5] = test system: giant foxtail (Setaria faberii); assay: Test A postemergence; details: Setaria faberi, post-emergence, 240 h, 125 g ai/ha, visual injury after approximately 10 d, read-out: Plant response rating, Foxtail, Giant
Method in brief: as §1

Kochia (Kochia scoparia) = assay: Test A preemergence; details: Bassia scoparia, pre-emergence, 240 h, preemergence; for pest or weed control at 125 g/ha: 125 g ai/ha, 0 to 100 scale where 0 is no effect and 100 is complete control; for pest or weed control at 500 g/ha: 500 g ai/ha
Method in brief: as §1

[6] = test system: pigweed (Amaranthus retroflexus); assay: Test A preemergence; details: Amaranthus retroflexus, pre-emergence, 240 h, preemergence; for pest or weed control at 125 g/ha: 125 g ai/ha, 0 to 100 scale where 0 is no effect and 100 is complete control; for pest or weed control at 500 g/ha: 500 g ai/ha
[7] = test system: ragweed (common ragweed, Ambrosia elatior); assay: Test A preemergence; details: Ambrosia artemisiifolia, pre-emergence, 240 h, preemergence; for pest or weed control at 125 g/ha: 125 g ai/ha, 0 to 100 scale where 0 is no effect and 100 is complete control; for pest or weed control at 500 g/ha: 500 g ai/ha
Method in brief: as §1

[8] = test system: ryegrass, Italian (Italian ryegrass, Lolium multiflorum); assay: Test A preemergence; details: Lolium multiflorum, pre-emergence, 240 h, preemergence; for pest or weed control at 125 g/ha: 125 g ai/ha, 0 to 100 scale where 0 is no effect and 100 is complete control; for pest or weed control at 500 g/ha: 500 g ai/ha
Method in brief: as §1

[9] = test system: giant foxtail (Setaria faberii); assay: Test A preemergence; details: Setaria faberi, pre-emergence, 240 h, preemergence; for pest or weed control at 125 g/ha: 125 g ai/ha, 0 to 100 scale where 0 is no effect and 100 is complete control; for pest or weed control at 500 g/ha: 500 g ai/ha
Method in brief: as §1

[10] = test system: barnyardgrass (Echinochloa crus-galli); assay: Test A preemergence; details: Echinochloa crus-galli, pre-emergence, 240 h, preemergence; for pest or weed control at 125 g/ha: 125 g ai/ha, 0 to 100 scale where 0 is no effect and 100 is complete control; for pest or weed control at 500 g/ha: 500 g ai/ha
Method in brief: as §1

rice (Oryra sativa) = assay: Test B flooded paddy test; details: Oryza sativa, Flood, 250 g ai/ha; scale of 0 to 100 where 0 is no effect and 100 is complete control; read-out: Rice plant response rating
Method in brief: (§2)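 Compound goes directly into floodwater once pots are flooded 3 cm above soil, targeting plants at two leaves; the water depth is then held for the test duration. Plants sit 13–15 d in a greenhouse and are rated visually, 100 denoting complete control.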

[11] = test system: sedge, umbrella (small-flower umbrella sedge, Cyperus difformis); assay: Test B flooded paddy test; details: Cyperus difformis, Flood, 250 g ai/ha; scale of 0 to 100 where 0 is no effect and 100 is complete control; read-out: Sedge, Umbrella plant response rating
Method in brief: as §2

[12] = test system: ducksalad (Heteranthera limosa); assay: Test B flooded paddy test; details: Heteranthera limosa, Flood, 250 g ai/ha; scale of 0 to 100 where 0 is no effect and 100 is complete control; read-out: Ducksalad plant response rating
Method in brief: as §2

[13] = test system: barnyardgrass (Echinochloa crus-galli); assay: Test B flooded paddy test; details: Echinochloa crus-galli, Flood, 250 g ai/ha; scale of 0 to 100 where 0 is no effect and 100 is complete control; read-out: Barnyardgrass plant response rating
Method in brief: as §2

[14] = postemergence, 0 to 100 scale (0 no effect, 100 complete control)
[15] = visual rating after approx. 10 d, read-out: Plant response rating, Kochia
[16] = 0 to 100 scale, 0 = no effect, 100 = complete control, read-out: Plant response rating, Kochia
[17] = visual rating after approx. 10 d, read-out: Plant response rating, Pigweed
[18] = 0 to 100 scale, 0 = no effect, 100 = complete control, read-out: Plant response rating, Pigweed
[19] = visual rating after approx. 10 d, read-out: Plant response rating, Ragweed
[20] = 0 to 100 scale, 0 = no effect, 100 = complete control, read-out: Plant response rating, Ragweed
[21] = visual rating after approx. 10 d, read-out: Plant response rating, Ryegrass, Italian
[22] = 0 to 100 scale, 0 = no effect, 100 = complete control, read-out: Plant response rating, Ryegrass, Italian
[23] = visual rating after approx. 10 d, read-out: Plant response rating, Foxtail, Giant
[24] = 0 to 100 scale, 0 = no effect, 100 = complete control, read-out: Plant response rating, Foxtail, Giant
[25] = visual rating after approx. 10 d, read-out: Plant response rating, Barnyardgrass
[26] = 0 to 100 scale, 0 = no effect, 100 = complete control, read-out: Plant response rating, Barnyardgrass
[27] = Postemergence, 0 to 100 scale where 0 is no effect and 100 is complete control

| SMILES | plant injury at 125 g/ha [1, 14] | pest or weed control at 125 g/ha [2, 14] | pest or weed control at 125 g/ha [3, 14] | pest or weed control at 125 g/ha [4, 14] | pest or weed control at 125 g/ha [5, 14] | pest or weed control at 125 g/ha (Kochia (Kochia scoparia); [15]) | pest or weed control at 500 g/ha (Kochia (Kochia scoparia); [16]) | pest or weed control at 125 g/ha [6, 17] | pest or weed control at 500 g/ha [6, 18] | pest or weed control at 125 g/ha [7, 19] | pest or weed control at 500 g/ha [7, 20] | pest or weed control at 125 g/ha [8, 21] | pest or weed control at 125 g/ha [9, 23] | pest or weed control at 500 g/ha [9, 24] | pest or weed control at 125 g/ha [10, 25] | pest or weed control at 500 g/ha [10, 26] | pest or weed control at 250 g/ha (rice (Oryra sativa)) | pest or weed control at 250 g/ha [11] | pest or weed control at 250 g/ha [12] | pest or weed control at 250 g/ha [13] | further results |
| --- | --- | --- | --- | --- | --- | --- | --- | --- | --- | --- | --- | --- | --- | --- | --- | --- | --- | --- | --- | --- | --- |
| CN1C[C@H](c2ccc(C(F)(F)F)cc2)[C@@H](C(=O)Nc2ccccc2C2CC2)C1=O [Compound 747] | 0% | 30% | 30% | 0% | 70% | 60% | 80% | 50% | 50% | 20% | 0% | 0% | 90% | 90% | 0% | 70% | 15% | 0% | 90% | 0% | pest or weed control at 500 g/ha [8, 22]: 60% |
| O=C(Nc1cccc(Cl)c1F)[C@H]1C(=O)N(C2CC2)CC[C@@H]1c1cccc(C(F)(F)F)c1 [Compound 926] | – | – | – | – | – | – | – | – | – | – | – | – | – | – | – | – | 0% | 0% | 0% | 0% | plant injury at 125 g/ha [1, 27]: 0%; pest or weed control at 125 g/ha [2, 27]: 0%; pest or weed control at 125 g/ha [3, 27]: 0%; pest or weed control at 125 g/ha [4, 27]: 0%; pest or weed control at 125 g/ha [5, 27]: 40%; pest or weed control at 125 g/ha (Kochia (Kochia scoparia); read-out: Kochia plant response rating): 0%; pest or weed control at 500 g/ha (Kochia (Kochia scoparia); visual injury rating about 10 d after treatment, 0 to 100 scale (0 no effect, 100 complete control), read-out: Kochia plant response rating): 0%; pest or weed control at 125 g/ha ([6]; read-out: Pigweed plant response rating): 0%; pest or weed control at 500 g/ha ([6]; visual injury rating about 10 d after treatment, 0 to 100 scale (0 no effect, 100 complete control), read-out: Pigweed plant response rating): 0%; pest or weed control at 125 g/ha ([7]; read-out: Ragweed plant response rating): 0%; pest or weed control at 500 g/ha ([7]; visual injury rating about 10 d after treatment, 0 to 100 scale (0 no effect, 100 complete control), read-out: Ragweed plant response rating): 0%; pest or weed control at 125 g/ha ([8]; read-out: Ryegrass, Italian plant response rating): 0%; pest or weed control at 500 g/ha ([8]; visual injury rating about 10 d after treatment, 0 to 100 scale (0 no effect, 100 complete control), read-out: Ryegrass, Italian plant response rating): 0%; pest or weed control at 125 g/ha ([9]; read-out: Foxtail, Giant plant response rating): 80%; pest or weed control at 500 g/ha ([9]; visual injury rating about 10 d after treatment, 0 to 100 scale (0 no effect, 100 complete control), read-out: Foxtail, Giant plant response rating): 90%; pest or weed control at 125 g/ha ([10]; read-out: Barnyardgrass plant response rating): 30%; pest or weed control at 500 g/ha ([10]; visual injury rating about 10 d after treatment, 0 to 100 scale (0 no effect, 100 complete control), read-out: Barnyardgrass plant response rating): 90% |
| O=C1NC[C@H](c2cscn2)[C@H]1C(=O)Nc1ccccc1F [Compound 752] | 0% | 0% | 0% | 20% | 50% | 60% | 70% | 20% | 40% | 40% | 60% | 20% | 90% | 90% | 30% | 90% | 0% | 0% | 0% | 0% | pest or weed control at 500 g/ha [8, 22]: 30% |
| CCc1ccc([C@H]2CNC(=S)[C@@H]2C(=O)Nc2cccc(F)c2F)cc1 [Compound 762] | 0% | 0% | 0% | 0% | 20% | 0% | 50% | 0% | 0% | 0% | 50% | 20% | 70% | 100% | 100% | 100% | 0% | 0% | 98% | 0% | – |
